Data on ten compounds can be found in patent US8093388B2, “3-aza spiro[5,5]undec-8-ene derivatives and their use as monoamine neurotransmitter re-uptake inhibitors” (Neurosearch A/S, priority 2005, dated 2012).

The structures appear in SMILES notation. Where two headings read alike, the source gives them in different places.

Series [1] addresses T1, reuptake of serotonine (5-HT) in synaptosomes (Rattus norvegicus, UniProt P31652).
T1 construct: in synaptosomes as described in WO 97/16451; from tissue
The experiment in a line: Inhibition of serotonine (5-HT) reuptake in synaptosomes. Format: biochemical. The text has this: (§1) Compounds of the invention may be tested for their ability to inhibit reuptake of the monoamines dopamine, noradrenaline and serotonin in synaptosomes e.g. such as described in WO 97/30997. Based on the balanced activity observed in these tests the compound of the invention is considered useful for the treatment, prevention or alleviation of a disease or a disorder or a condition of a mammal, including a human, which disease, disorder or condition is responsive to inhibition of monoamine neurotransmitter re-uptake in the central nervous system.
(§2) A number of compounds were tested for their ability to inhibit the reuptake of the monoamine neurotransmitters dopamine (DA) noradrenaline (NA) and serotonine (5-HT) in synaptosomes as described in WO 97/16451.
(§3) The test values are given as IC50 (the concentration (μM) of the test substance which inhibits the specific binding of ^3H-DA, ^3H-NA, or ^3H-5-HT by 50%).

The target of series [2] is T2, reuptake of dopamine (DA) in synaptosomes (Rattus norvegicus, UniProt P23977).
T2 construct: in synaptosomes as described in WO 97/16451; from tissue
The experiment in a line: Inhibition of dopamine (DA) reuptake in synaptosomes. The following applies: 3H-DA, read-out: DA-uptake IC50. Format: biochemical.
From the text: as §1, §2, §3

Series [3] concerns the target T3, reuptake of noradrenaline (NA) in synaptosomes (Rattus norvegicus, UniProt Q9WTR4).
T3 construct: in synaptosomes as described in WO 97/16451; from tissue
Description: Inhibition of noradrenaline (NA) reuptake in synaptosomes. The following applies: 3H-NA, read-out: NA-uptake IC50. Format: biochemical.
From the text: as §1, §2, §3

Where [4] appears, read: synaptosomes, 3H-5-HT, read-out: 5-HT-uptake IC50.

T3 sequence (Q9WTR4 1-597): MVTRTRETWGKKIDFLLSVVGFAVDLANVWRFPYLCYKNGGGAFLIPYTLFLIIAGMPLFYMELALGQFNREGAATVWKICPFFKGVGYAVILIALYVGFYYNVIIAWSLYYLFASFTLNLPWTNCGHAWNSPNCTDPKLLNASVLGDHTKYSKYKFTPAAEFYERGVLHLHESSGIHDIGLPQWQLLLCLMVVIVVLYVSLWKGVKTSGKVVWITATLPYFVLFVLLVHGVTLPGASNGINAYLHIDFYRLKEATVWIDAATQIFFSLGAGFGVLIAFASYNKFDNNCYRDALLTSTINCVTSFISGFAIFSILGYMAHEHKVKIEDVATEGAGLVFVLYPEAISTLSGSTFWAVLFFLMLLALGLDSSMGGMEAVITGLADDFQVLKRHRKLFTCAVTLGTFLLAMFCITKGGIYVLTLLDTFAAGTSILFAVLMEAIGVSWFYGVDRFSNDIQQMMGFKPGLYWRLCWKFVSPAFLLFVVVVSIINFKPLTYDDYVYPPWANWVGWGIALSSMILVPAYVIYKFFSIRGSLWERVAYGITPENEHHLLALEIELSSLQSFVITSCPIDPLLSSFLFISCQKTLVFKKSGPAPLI
T2 sequence (P23977 whole entry): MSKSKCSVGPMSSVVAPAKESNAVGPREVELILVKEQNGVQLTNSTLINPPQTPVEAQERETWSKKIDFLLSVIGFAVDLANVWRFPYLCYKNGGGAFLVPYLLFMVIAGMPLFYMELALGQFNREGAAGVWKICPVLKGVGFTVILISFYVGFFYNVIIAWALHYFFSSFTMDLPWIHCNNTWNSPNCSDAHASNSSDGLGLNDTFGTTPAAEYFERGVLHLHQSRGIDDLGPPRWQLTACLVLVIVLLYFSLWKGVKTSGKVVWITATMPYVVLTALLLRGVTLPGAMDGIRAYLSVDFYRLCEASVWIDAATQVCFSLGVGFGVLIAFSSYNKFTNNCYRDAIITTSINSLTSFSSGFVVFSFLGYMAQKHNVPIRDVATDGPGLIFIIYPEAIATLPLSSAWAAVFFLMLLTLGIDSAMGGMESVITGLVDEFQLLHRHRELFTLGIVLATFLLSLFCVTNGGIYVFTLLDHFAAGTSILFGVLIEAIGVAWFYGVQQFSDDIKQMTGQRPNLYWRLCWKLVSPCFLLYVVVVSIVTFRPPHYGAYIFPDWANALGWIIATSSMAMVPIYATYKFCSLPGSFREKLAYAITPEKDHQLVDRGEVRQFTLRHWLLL
T1 sequence (P31652 whole entry): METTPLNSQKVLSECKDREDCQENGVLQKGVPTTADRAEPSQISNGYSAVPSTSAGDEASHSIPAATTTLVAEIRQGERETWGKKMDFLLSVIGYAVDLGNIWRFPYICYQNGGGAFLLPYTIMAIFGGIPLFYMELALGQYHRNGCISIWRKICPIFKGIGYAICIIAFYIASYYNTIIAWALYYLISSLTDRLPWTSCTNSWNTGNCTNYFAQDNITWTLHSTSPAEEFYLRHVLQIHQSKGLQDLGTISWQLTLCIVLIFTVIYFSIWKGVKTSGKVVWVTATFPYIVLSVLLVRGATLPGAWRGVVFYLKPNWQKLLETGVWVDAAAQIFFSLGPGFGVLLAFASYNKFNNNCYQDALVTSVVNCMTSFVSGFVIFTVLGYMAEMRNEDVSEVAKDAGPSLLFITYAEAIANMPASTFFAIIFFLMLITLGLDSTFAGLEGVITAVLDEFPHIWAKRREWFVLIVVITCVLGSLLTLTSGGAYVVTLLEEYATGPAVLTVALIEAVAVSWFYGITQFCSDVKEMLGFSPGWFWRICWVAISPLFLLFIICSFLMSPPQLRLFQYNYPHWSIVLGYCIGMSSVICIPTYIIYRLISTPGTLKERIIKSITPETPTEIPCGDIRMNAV

Broadly, the melting point is the temperature of the solid-liquid transition. The compound `COc1ccc2cc(C3=CCC4(CC3)CCN(C)CC4)ccc2c1` [9-(6-Methoxy-naphthalen-2-yl)-3-methyl-3-aza-spiro[5.5]undec-8-ene] displayed a melting point of 146.9 to 149.5 °C.

The IC50 is the concentration at which inhibition is half-maximal. Consider `Brc1cccc(C2=CCC3(CCNCC3)CC2)n1` [2nd last compound of method A, 9-(6-Bromo-pyridin-2-yl)-3-aza-spiro[5.5]undec-8-ene], for which the melting point was 161.3 to 162.8 °C. Inhibition in series [1] was half-maximal at 18 nM (IC50). Besides, the IC50 in series [2] was 2000 nM. Besides, in series [3], the IC50 worked out at 1000 nM.

Turning to `CN1CCC2(CC=C(c3cc4ccccc4o3)CC2)CC1.O=C(O)/C=C/C(=O)O`, the melting point lay in the range of 224.2 to 226.1 °C.

`C1=C(c2cc3ccccc3o2)CCC2(C1)CCNCC2.O=C(O)C(F)(F)F` registered a melting point of 215.7 to 217.3 °C.

`CN1CCC2(CC=C(c3cc4ccccc4s3)CC2)CC1` [9-Benzo[b]thiophen-2-yl-3-methyl-3-aza-spiro[5.5]undec-8-ene] displayed a melting point of 89.7 to 91.2 °C.

In turn, `COc1ccc2cc(C3=CCC4(CCNCC4)CC3)ccc2c1` [4th compound of method A, 9-(6-Methoxy-naphthalen-2-yl)-3-aza-spiro[5.5]undec-8-ene] came in with a melting point of 146.9 to 149.5 °C. For the same compound, the IC50 in series [1] (setting [4]) was found to be 16 nM. For the same compound, in series [2], the IC50 is 38 nM. Also, the IC50 in series [3] turned out to be 120 nM.

`C1=C(c2cc3ccccc3s2)CCC2(C1)CCNCC2` [2nd compound of method A, 9-Benzo[b]thiophen-2-yl-3-aza-spiro[5.5]undec-8-ene] displayed a melting point of 107.3 to 110.2 °C. Moreover, the IC50 in series [1] (setting [4]) came out at 20 nM. Further, the IC50 in series [2] was 1200 nM. Also, the IC50 in series [3] turned out to be 580 nM.

`C1=C(c2ccc3ccccc3c2)CCC2(C1)CCNCC2` [9-Naphthalen-2-yl-3-aza-spiro[5.5]undec-8-ene] yielded a melting point of 137.1 to 141.3 °C.

Take `Clc1ccc(C2=CCC3(CCNCC3)CC2)cc1`: the melting point lay in the range of 104.2 to 107.1 °C.

In the case of `COc1cc(C2=CCC3(CCNCC3)CC2)ccc1Cl` [9-(4-Chloro-3-methoxy-phenyl)-3-aza-spiro[5.5]undec-8-ene], the melting point was 182 to 185 °C.
